Where “and” joins values, the source holds several entries; their conditions need not be identical. Equal entries are not always repeated.
Columns and labels:
NK1 receptor [1] = target: NK1 receptor (Meriones unguiculatus, UniProt Q5DUB1); assay: Gerbil foot thumping (in vivo pharmacodynamic model of NK1 receptor activity); set-up: from tissue; host or cells: living gerbil (central NK1 receptors)
From the text: Intracerebroventricular administration of NK1 receptor agonists to gerbils induces vigorous thumping in the hind feet. This response can be blocked by NK1 receptor antagonists.

[2] = Pharmacokinetics/toxicokinetics and excretion in monkeys; format: in vivo, monkey; settings: for plasma concentration-time profile: single oral dose
From the text: (§1) Urinary excretion was also substantial (approximately 20%).

hERG gene current = hERG gene current (Homo sapiens, UniProt Q12809); assay: hERG current inhibition; format: cell-based
Description: A series of in vitro and in vivo studies examined the effects of SCH900978 on cardiovascular, respiratory and CNS functions. No adverse effects were observed. The NOAEL was ≥25 mg/kg in male rats, ≥12.5 mg/kg in female rats and ≥10 mg/kg in male cynomolgus monkeys; each dose was the highest dose tested.

NK2 receptor = target: T1, NK2 receptor (Homo sapiens, UniProt P21452); assay: NK2 receptor affinity; format: binding
T1 sequence (P21452 1-398): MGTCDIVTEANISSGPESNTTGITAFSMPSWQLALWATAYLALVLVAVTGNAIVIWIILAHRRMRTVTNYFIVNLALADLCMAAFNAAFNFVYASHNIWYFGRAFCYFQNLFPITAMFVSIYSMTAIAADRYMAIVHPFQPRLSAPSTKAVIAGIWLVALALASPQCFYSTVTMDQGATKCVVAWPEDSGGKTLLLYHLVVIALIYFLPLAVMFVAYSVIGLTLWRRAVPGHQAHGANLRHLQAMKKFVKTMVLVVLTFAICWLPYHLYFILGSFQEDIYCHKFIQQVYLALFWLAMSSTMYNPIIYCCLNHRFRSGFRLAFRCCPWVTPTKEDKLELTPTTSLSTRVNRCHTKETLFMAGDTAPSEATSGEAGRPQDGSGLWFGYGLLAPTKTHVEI
From the text: (§2) A compound of formula I (also designated SCH 900978) is a potent, selective, competitive neurokinin-1 (NK-1) receptor antagonist that is effective as an oral administered drug for the treatment of cough and meets this unmet medical need. In addition, this drug is effective for the treatment of overactive bladder (OAB) and other selected indications including major depression and alcohol dependency. […] The present invention comprises a compound of formula I having an effective dose for 90% inhibition [ED90]=0.2 mg/kg as determined in an in vivo pharmacodynamic model of NK1 receptor activity (gerbil foot thumping).
(§3) SCH900978 was also tested for NK2 and NK3 receptor activity and in 106 other receptors, transporters, enzymes and ion channels and had greater than 1000 fold lower affinity for these than for the NK1 receptor.

[3] = system: cough induced by mechanical stimulation of the intrathoracic trachea; assay: Mechanically induced cough in anesthetized dogs; format: in vivo; settings: anesthetized dog, 0.3 mg/kg oral
Description: (§4) The antitussive activity of SCH 900978 was also evaluated against cough induced by mechanical stimulation of the intrathoracic trachea in anesthetized dogs. Cough was measured in each stimulation trial by the cough frequency (number of coughs) and cough amplitude (cm H2O increase in expiratory pressure). […] Plasma concentration of SCH900978 at 2, 6 and 25 hours after administration of the 0.3 mg/kg dose to dogs were 201, 151 and 102 ng/mL (373, 280 and 189 nM), respectively.

NK1 receptors = NK1 receptors (Rattus norvegicus, UniProt P14600); assay: NK1 receptor radioligand binding, rat; settings: no unit, Ki in nM
Description: as §3

[4] = Plasma concentration after oral dose in dogs; format: in vivo; settings: dog, 0.3 mg/kg oral
Description: as §4

[5] = Brain penetration, gerbils; format: in vivo, gerbil
Description: as §1
(§5) The extent of brain penetration by SCH 900978 was evaluated after oral administration of SCH 900978 amorphous hydrochloride to female gerbils (0.1 mg/kg), male Sprague Dawley rats (5 mg/kg), and male guinea pigs (0.3 mg/kg).

NK1 receptor [6] = target: NK1 receptor (Homo sapiens, UniProt P25103); assay: Block of GR-73632-mediated calcium efflux in cells expressing the human NK1 receptor (Schild analysis); format: cell-based; settings: GR-73632-stimulated calcium efflux, read-out: Kb, equilibrium dissociation constant determined by Schild analysis
From the text: as §2, §3

NK3 receptor = target: T2, NK3 receptor (Homo sapiens, UniProt P29371); assay: NK3 receptor affinity; format: binding
T2 sequence (P29371 1-465): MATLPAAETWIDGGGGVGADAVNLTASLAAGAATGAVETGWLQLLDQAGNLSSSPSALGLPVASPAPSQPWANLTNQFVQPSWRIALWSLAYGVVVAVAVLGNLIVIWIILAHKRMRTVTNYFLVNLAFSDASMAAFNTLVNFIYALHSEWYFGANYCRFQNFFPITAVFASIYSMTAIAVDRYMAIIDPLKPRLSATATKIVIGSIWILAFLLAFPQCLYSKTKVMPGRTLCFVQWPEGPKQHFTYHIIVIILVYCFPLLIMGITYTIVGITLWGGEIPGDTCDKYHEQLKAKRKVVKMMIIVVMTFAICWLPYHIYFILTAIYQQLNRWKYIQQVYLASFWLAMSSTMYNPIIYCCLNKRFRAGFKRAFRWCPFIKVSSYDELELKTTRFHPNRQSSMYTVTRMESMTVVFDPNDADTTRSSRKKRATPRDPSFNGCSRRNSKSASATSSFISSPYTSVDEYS
From the text: as §2, §3

[7] = Brain penetration, guinea pigs; format: in vivo, guinea pig
Description: as §1, §5

Chain of NK1 receptor (Meriones unguiculatus, UniProt Q5DUB1) (Q5DUB1 whole entry): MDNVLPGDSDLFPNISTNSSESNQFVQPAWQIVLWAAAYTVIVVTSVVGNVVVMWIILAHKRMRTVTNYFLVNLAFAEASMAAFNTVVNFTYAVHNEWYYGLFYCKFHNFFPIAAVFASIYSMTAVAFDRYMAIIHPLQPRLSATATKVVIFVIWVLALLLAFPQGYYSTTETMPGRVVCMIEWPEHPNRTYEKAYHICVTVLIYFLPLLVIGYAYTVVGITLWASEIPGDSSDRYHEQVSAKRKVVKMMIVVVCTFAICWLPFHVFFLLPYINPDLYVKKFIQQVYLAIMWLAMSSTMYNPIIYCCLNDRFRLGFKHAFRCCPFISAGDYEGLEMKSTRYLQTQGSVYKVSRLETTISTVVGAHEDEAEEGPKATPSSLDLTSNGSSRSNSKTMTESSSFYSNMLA
Chain of NK1 receptors (P14600 whole entry): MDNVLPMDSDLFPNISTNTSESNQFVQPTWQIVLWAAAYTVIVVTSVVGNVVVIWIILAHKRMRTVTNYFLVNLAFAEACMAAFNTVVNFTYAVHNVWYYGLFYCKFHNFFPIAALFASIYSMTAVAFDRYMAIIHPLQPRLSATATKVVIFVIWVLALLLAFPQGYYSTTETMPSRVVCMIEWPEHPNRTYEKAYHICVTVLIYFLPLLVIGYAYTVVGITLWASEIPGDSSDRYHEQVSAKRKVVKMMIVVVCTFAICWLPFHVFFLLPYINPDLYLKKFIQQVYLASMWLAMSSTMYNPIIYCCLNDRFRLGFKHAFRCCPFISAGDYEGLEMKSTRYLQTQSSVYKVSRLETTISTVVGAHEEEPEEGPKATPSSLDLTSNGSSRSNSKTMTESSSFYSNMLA
Chain of NK1 receptor (Homo sapiens, UniProt P25103) (P25103 whole entry): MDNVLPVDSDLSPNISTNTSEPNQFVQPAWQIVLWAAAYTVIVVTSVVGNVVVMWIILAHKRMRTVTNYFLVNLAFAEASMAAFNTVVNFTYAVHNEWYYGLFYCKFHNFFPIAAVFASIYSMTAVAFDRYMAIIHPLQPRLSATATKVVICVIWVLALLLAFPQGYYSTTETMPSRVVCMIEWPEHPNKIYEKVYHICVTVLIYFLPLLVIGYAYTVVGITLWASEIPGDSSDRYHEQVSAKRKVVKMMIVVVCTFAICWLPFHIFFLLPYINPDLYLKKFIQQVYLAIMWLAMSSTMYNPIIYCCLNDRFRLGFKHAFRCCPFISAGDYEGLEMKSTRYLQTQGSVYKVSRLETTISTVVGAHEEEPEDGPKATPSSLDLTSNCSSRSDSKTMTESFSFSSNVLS
Chain of hERG gene current (Q12809 whole entry): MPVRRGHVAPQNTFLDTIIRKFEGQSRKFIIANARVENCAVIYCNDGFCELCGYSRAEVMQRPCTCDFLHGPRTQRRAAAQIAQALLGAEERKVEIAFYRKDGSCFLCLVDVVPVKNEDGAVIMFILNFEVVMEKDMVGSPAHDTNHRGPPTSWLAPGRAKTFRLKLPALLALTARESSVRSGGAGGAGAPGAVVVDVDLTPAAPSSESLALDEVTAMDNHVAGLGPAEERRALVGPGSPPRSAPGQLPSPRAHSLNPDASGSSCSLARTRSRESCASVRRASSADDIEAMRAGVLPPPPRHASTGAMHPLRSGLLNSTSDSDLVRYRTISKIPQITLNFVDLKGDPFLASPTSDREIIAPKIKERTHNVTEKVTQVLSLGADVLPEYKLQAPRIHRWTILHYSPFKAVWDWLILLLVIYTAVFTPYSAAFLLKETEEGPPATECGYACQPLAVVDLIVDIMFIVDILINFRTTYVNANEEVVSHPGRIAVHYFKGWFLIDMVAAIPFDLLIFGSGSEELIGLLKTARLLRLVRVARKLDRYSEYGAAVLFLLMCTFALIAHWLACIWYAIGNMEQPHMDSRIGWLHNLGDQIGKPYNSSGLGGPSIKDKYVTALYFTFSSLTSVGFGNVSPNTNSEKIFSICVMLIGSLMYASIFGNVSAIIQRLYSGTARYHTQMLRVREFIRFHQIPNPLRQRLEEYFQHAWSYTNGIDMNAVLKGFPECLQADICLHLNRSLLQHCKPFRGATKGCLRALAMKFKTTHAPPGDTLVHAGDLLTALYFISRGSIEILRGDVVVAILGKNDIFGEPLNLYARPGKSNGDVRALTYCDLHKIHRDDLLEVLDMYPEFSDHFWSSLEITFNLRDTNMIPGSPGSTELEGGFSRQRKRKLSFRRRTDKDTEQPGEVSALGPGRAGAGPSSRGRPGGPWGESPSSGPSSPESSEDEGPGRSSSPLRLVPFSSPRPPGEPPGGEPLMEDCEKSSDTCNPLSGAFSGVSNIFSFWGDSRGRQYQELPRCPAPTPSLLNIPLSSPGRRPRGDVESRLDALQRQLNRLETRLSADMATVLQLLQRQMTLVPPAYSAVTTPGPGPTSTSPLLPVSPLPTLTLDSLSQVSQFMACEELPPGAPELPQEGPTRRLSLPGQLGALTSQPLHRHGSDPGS

In the case of `C[C@@H](OC[C@@]1(c2ccccc2)CC[C@](C#N)(n2cn[nH]c2=O)CN1)c1cc(C(F)(F)F)cc(C(F)(F)F)c1` [Compound 42, (3 S,6S)-6-({(1R)-1-[3,5-bis(trifluoromethyl)phenyl]ethoxy}methyl)-3-(5-oxo-1,5dihydro-4H-1,2,4-triazol-4-yl)-6-phenylpiperidine-3-carbonitrile], the “duration of significant inhibition of NK1 agonist-induced foot thumping” value (NK1 receptor [1]; 0.3 mg/kg oral dose) is reported as “up to 48 hours”, the “ED90, effective dose for 90% inhibition of foot thumping” value (NK1 receptor [1]; oral, six hours before testing, GR 73632-induced) is reported as 0.2 mg/kg and the “exposure, effect of sex” value ([2]; monkeys) is reported as “independent of sex”. For the same compound, the “systemic exposure versus dose, single dose” value ([2]; monkeys) was “increased with increasing dose”, the “plasma concentrations over 24 hours after 29th dose versus first dose” value ([2]; monkeys 0.5 to 30 mg/kg) was “greater” and the exposure versus dose ([2]; monkeys, once daily oral doses for one month) was “generally increased as the dose increased”. For the same compound, the major elimination pathway ([2]; monkeys, oral administration) was “excretion into the feces”, the plasma concentration-time profile ([2]; monkeys, listed as SCH 900978) was “extended absorption of SCH900978 with a long t1/2” and the plasma concentration-time profile ([2]; monkeys, listed as SCH900978) was “extended absorption of the drug and a long apparent terminal elimination phase half-life”. For the same compound, the IC50 (hERG gene current) was 860 nM, the Ki (NK2 receptor) was over 1000 nM and the “fold lower affinity than for the NK1 receptor” value (NK2 receptor; NK2 vs NK1) was “greater than 1000 fold”. For the same compound, the “duration of significantly reduced cough amplitude” value [3] was “up to 24 hours”, the “duration of significantly reduced cough frequency” value [3] was “up to 24 hours” and the Ki (NK1 receptors) was 4.62 nM. For the same compound, the concentration at 2 h ([4]; 2 hours) was 201 ng/mL and 373 nM, the concentration at 6 h ([4]; 6 hours) was 151 ng/mL and 280 nM and the concentration at 25 h ([4]; 25 hours) was 102 ng/mL and 189 nM. For the same compound, the “crossing of the blood brain barrier” value [5] was “readily crossed the blood brain barrier”, the Kb (NK1 receptor [6]) was 0.17 nM and the Ki (NK3 receptor) was over 1000 nM. For the same compound, the “fold lower affinity than for the NK1 receptor” value (NK3 receptor; NK3 vs NK1) was “greater than 1000 fold” and the “crossing of the blood brain barrier” value [7] was “readily crossed the blood brain barrier”.

Reference: patent US20180153872A1, “HETEROARYL CARBONITRILES FOR THE TREATMENT OF DISEASE” (OPKO Health, Inc., priority 2015, published 2018)
